From patent US20250002492A1, “COMPOSITIONS OF FOLATE ABSORPTION INHIBITORS AND METHODS THEREOF” (THE TEXAS A&M UNIVERSITY SYSTEM, priority 2023, published 2025)

Molecular target: T1, Folate Uptake Transporter (PCFT) in Caco2 cells (Homo sapiens, UniProt Q96NT5)
T1 construct: These cells express high levels of the PCFT/SLC46A1 receptor; host or cells: Caco-2
T1 sequence (Q96NT5 1-459): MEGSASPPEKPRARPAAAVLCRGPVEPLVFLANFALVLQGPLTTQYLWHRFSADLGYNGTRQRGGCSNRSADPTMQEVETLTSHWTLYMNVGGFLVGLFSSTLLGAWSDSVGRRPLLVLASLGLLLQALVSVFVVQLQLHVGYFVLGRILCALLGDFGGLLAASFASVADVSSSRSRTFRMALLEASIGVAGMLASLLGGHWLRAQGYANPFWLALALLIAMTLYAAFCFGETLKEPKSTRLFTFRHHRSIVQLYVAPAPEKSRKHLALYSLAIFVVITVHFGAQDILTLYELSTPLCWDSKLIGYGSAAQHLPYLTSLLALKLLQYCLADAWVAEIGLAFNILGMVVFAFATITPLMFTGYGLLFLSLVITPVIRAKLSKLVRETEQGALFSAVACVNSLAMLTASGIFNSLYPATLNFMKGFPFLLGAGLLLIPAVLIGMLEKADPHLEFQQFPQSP
Test: Folate uptake transporter substrate assessment in Caco2 cell line (compound uptake with and without pemetrexed)
Format: in vitro ADME
Protocol: Cell Plates were Prepared According to the Methods of Example 8 Using Caco-2 Cells from American Type Culture Collection at Passage 37.
The transport buffer (HBSS with 10 mM MES, pH 5.5) was prepared by weighing 1.952 g of MES and 0.35 g sodium hydrogen carbonate and adding into 900 mL of pure water followed by sonication to dissolve the content. Following the transfer of 100 mL of 10×HBSS into the solution. The solution was placed on a stirrer, the pH was slowly adjusted with hydrochloric acid to 5.5, and then the solution was filtered to get HBSS solution (with 10 mM MES, pH 5.5).
The test compounds and folic acid (1 μM) substrate solutions were prepared by diluting with pH 5.5 buffer. Next, the test compounds and folic acid (1 μM) substrate solution+positive control inhibitor (pemetrexed, 50 μM) were prepared. For the solution without inhibitor, DMSO was diluted with corresponding substrate solution to get the working incubation solution.
For the solution with inhibitor, the pre-incubation solution was prepared by adding the positive control inhibitor (pemetrexed, 50 μM) in pH 5.5 buffer. For the solution without inhibitor, DMSO was diluted with pH 5.5 buffer and used as the vehicle control.
When the 8-10 day Caco-2 cultured cells reached confluence and were differentiated, they were ready to be used for transport studies. The Caco-2 plate was removed from the incubator, and the medium was removed from the 24-well Plates. Next, cells were washed 3 times with 300 μL of pre-warmed pH 5.5 buffer. Then, 300 μL of pre-incubation solution was added into each well and the plate was placed at 37° C. for 30 minutes. The assay was performed in duplicate. After 30 minutes pre-incubation, the pre-incubation solution was aspirated, and 300 μL of pre-warmed working incubation solution was added to start the transporter assay. After 6 minutes incubation, cells were washed by quickly adding/aspirating 300 μL of ice-cold pH 5.5 buffer 4 times. The pH 5.5 buffer was removed and 300 μL of pure water was added into each well. Freeze-thaw in liquid nitrogen and 37° C. incubator was repeated for 3 times to lyse cells. After, centrifugation at 3,300 g was performed for 30 seconds. Next, 50 μL of supernatant was transferred to 200 μL methanol or acetonitrile containing internal standard and centrifuged at 3,300 g for 30 minutes. 200 μL aliquots of the supernatants were used for LC-MS/MS analysis. Standards were treated the same as samples.
A BCA Kit was used to determine the protein content for each well. Bovine serum albumin at 2, 1, 0.5, 0.25, 0.125, 0.0625, 0.0313, 0.0156, 0.00781 and 0.00391 mg/mL was prepared in Phosphate Buffer Saline (PBS, pH 7.4). 10 μL of supernatant was mixed from the previous step with the same volume of PBS. 20 μL of standard or test sample was added into 96-well clear plate and mixed with 200 μL working reagent. After 30 minutes incubation at 37° C., the absorbance at 562 nm was measured on the microplate reader.
Standard-curves: prepared 200 μM DMSO Folic acid solution, samples of 1000 nm, 300 nm, 100 nm, 30 nM, and 10 nM prepared using a PH 5.5 buffer, and a PH 5.5 buffer containing 50 μM of pemetrexed, respectively.
All calculations were carried out using Microsoft Excel. Peak areas were determined from extracted ion chromatograms. Uptake rate, in unit of pmol/mg protein/min, is calculated using the following equation: Uptake rate=Conc./(Protein×Time); Conc. is concentration of drug in cell lysate (nM), Protein is the protein concentration of cell lysate (mg/mL), and Time is the incubation time (minute). Uptake ratio is calculated using the following equation: Uptake ratio=Uptake rate without inhibitor/Uptake rate with inhibitor. Note: The compound was considered as a potential substrate of a particular transporter when the uptake ratio was greater than 2.

## CC(=O)N1CCC(C(=O)N2CCN3C(=O)c4cc(-c5ccccc5)ccc4NC(=O)C3C2)CC1 (centres unmarked) [MPOL_B_1, 2-(1-acetylpiperidine-4-carbonyl)-8-phenyl-1,3,4,12a-tetrahydrobenzo[e]pyrazino[1,2-a][1,4]diazepine-6,12(2H,11H)-dione]
Caco-2
  cell permeability: least permeable
human, Caco-2, 6 min, 1 μM, pH 5.5
  Uptake Ratio(−Inhibitor/+Inhibitor): 0.76
